The values that follow are results of earlier work, collected in patent publication US20120101390A1, “Multi-Modal Imaging for Diagnosis of Early Stage Epithelial Cancers” (priority 2010, published 2012).

This series has as its target T1, integrin αvβ3 (Homo sapiens, UniProt P05106+P06756).
T1 construct: integrin αvβ3-positive U87MG xenograft models; endogenous in cells; host or cells: U87MG (tumour xenograft)
To be noted: integrin αvβ3-positive U87MG xenograft models.

T1 sequence (P06756 31-889 limits assumed): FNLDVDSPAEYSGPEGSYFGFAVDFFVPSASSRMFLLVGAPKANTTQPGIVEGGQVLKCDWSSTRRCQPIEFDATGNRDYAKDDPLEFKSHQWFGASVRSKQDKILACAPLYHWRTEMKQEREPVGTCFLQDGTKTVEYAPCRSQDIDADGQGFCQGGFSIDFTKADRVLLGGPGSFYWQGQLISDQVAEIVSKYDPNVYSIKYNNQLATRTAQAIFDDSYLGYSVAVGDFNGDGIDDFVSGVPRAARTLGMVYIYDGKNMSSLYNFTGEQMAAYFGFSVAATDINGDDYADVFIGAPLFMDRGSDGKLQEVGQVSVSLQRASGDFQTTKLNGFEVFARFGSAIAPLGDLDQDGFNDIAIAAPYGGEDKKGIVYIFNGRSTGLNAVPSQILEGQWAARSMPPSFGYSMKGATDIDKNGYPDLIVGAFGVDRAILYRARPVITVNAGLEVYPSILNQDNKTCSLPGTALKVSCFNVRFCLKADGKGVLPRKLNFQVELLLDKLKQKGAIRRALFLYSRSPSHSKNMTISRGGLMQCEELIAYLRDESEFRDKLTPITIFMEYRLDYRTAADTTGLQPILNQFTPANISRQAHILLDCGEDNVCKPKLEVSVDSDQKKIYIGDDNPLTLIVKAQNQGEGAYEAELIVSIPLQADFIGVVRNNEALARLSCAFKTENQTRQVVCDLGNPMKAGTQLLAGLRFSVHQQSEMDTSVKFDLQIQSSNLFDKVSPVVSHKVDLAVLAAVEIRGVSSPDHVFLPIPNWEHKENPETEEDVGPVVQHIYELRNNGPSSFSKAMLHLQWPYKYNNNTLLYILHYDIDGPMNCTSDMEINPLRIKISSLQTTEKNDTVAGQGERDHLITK
T1 sequence (P06756 891-1048 limits assumed): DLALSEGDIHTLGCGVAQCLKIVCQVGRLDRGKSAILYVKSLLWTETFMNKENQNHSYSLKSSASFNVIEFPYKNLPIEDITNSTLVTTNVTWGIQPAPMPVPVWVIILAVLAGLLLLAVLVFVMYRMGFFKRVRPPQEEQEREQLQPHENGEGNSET
T1 sequence (P05106 27-788): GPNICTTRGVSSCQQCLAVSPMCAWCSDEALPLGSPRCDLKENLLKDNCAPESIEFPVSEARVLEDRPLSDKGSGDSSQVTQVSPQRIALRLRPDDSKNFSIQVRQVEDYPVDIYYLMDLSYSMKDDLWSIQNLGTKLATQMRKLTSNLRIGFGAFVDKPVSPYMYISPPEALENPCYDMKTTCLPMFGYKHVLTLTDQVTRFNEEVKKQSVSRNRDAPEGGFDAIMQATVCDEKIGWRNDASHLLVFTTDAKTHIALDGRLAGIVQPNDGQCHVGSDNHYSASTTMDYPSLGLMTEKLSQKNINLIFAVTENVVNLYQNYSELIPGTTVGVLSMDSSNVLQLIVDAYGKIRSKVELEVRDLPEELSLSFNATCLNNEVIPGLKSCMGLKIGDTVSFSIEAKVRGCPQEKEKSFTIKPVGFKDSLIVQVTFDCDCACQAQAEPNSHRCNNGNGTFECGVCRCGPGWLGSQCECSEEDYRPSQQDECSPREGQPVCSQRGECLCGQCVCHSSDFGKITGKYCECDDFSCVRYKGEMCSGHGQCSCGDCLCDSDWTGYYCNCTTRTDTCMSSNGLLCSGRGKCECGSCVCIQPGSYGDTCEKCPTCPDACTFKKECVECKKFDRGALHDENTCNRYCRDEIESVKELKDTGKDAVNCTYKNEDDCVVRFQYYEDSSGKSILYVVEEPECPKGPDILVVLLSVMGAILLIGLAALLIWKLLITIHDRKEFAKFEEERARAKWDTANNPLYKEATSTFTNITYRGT

In the case of E-[c(RGDfK)]2, the “binding relative to the monomeric counterpart” value is on record as “stronger binding”. Regarding E-[G-G-G-c(RGDfK)]2, the “binding relative to the monomeric counterpart” value is given as “stronger binding”. With E-{G-[c(RGDfK)]2}2, the “binding relative to the monomeric counterpart” value is recorded as “stronger binding”.
